These are literature values, as cited in patent US10028930B2, “Compositions capable of enhancing thermogenesis and uses thereof” (Specialty Nutrition Group, Inc., priority 2013, dated 2018).

The test system of data set [1] is uncoupling proteins (UCP-1, UCP-2, UCP-3). The following applies: rodents, brown and white adipose tissue.
For data set [2] the following is noted: NAFLD subjects, compared to placebo.

Consider Fucoxanthin, for which, in data set [1], the “expression of uncoupling proteins (UCP-1, UCP-2, UCP-3)” value is on record as “inducing the expression”. The “resting energy expenditure (REE)” value in data set [2] is recorded as “significantly increased”.
